One test deals with T1, human B1R receptor (Homo sapiens, UniProt P46663).
T1 construct: host or cells: CHO K1 cells (Chinese hamster ovary), stably transfected
T1 sequence (P46663 1-353): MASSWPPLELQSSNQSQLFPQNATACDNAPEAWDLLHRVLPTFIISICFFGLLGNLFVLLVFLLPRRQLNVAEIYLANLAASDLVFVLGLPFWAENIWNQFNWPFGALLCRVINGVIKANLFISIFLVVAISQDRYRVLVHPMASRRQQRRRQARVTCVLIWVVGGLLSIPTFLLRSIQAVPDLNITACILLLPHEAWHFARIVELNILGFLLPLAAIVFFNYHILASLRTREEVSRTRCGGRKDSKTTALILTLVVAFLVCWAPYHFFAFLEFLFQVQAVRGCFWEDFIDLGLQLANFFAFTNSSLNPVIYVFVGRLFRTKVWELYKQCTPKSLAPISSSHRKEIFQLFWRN
In words: Functional study on the bradykinin receptor 1 (B1R), FLIPR Ca2+ assay, hB1R cells. In kind it is cell-based. Conditions: agonist Lys-Des-Arg9-bradykinin 0.5 nM, % inhibition compared with the maximum achievable inhibition; for inhibition at 10 µM: CHO-K1, test substance 10 μM, read-out: B1R Antagonism, human [10 μM] % Inhibition; for B1R Antagonism, human [10 μM] % Inhibition: test substance 10 μM, hB1R CHO K1 cells. Put shortly:
(§1)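 FLIPR Ca2+ read-out (Fluo-4, peak fluorescence) in stably transfected CHO K1 cells. Compounds at 10 μM, then 10 min later agonist challenge: human B1R with Lys-Des-Arg9-bradykinin 0.5 nM, rat B1R with Des-Arg9-bradykinin 100 nM; reported as % activation or % of maximal inhibition.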

In a further test the target is T2, B1R receptor of the rat (Rattus norvegicus, UniProt P97583).
T2 construct: host or cells: CHO K1 cells (Chinese hamster ovary), stably transfected
T2 sequence (P97583 1-337): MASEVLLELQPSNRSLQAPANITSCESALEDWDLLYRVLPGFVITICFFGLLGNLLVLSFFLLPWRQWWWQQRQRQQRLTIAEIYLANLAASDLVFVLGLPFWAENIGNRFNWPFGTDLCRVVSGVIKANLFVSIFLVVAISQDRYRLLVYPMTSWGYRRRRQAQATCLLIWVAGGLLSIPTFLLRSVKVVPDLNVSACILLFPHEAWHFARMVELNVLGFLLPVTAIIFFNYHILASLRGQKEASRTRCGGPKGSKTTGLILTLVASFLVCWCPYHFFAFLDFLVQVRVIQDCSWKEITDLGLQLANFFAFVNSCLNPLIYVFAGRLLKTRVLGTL
Kind of test: Functional study on the bradykinin receptor 1 (B1R), FLIPR Ca2+ assay, rB1R cells. The settings on record: agonist Des-Arg9-bradykinin 100 nM, % inhibition compared with the maximum achievable inhibition; for inhibition at 10 µM: CHO-K1, test substance 10 μM, read-out: B1R Antagonism, rat [10 μM] % Inhibition; for B1R Antagonism, rat [10 μM] % Inhibition: test substance 10 μM, rB1R CHO K1 cells. In kind it is cell-based. Put shortly:
as §1

Molecules are shown by their SMILES. Counter-ions that a name gives are not always drawn.

`COc1cc(C)c(S(=O)(=O)N2CCCC2COCC(=O)N(C)C(CN2CCN(C)CC2)c2ccccc2)c(C)c1` (stereo not drawn) [Example 446, 2-((1-(4-methoxy-2,6-dimethylphenylsulfonyl)pyrrolidin-2-yl)methoxy)-N-methyl-N-(2-(4-methylpiperazin-1-yl)-1-phenylethyl)acetamide]: the inhibition at 10 µM was found to be 95% on human B1R receptor and 99.8% at B1R receptor of the rat.
Consider `COc1cc(C)c(S(=O)(=O)N2CCCCC2COCC(=O)N2CCN(CCN(C(C)C)C(C)C)CC2)c(C)c1` (stereo not drawn) [Example 341, 1-(4-(2-(diisopropylamino)ethyl)piperazin-1-yl)-2-((1-(4-methoxy-2,6-dimethylphenylsulfonyl)piperidin-2-yl)methoxy)ethanone], for which the inhibition at 10 µM at human B1R receptor is 105%; on B1R receptor of the rat, 102%.
Turning to `CN(C(=O)COCC1CCCCN1S(=O)(=O)c1cccc2ccccc12)C(CN1CCOCC1)c1ccccc1` (stereo not drawn) [Example 47, N-methyl-N-(2-morpholin-4-yl-1-phenyl-ethyl)-2-[1-(naphthyl-1-sulfonyl)-piperidin-2-ylmethoxy]-acetamide], at human B1R receptor, the “B1R Antagonism, human [10 μM] % Inhibition” value was 68.07%. In addition, at B1R receptor of the rat, the “B1R Antagonism, rat [10 μM] % Inhibition” value is 48.84%.
For the compound `COc1cc(C)c(S(=O)(=O)N2CCCC2COCC(=O)Nc2ccc(CCc3nc4ccccc4n3C)cc2)c(C)c1` (stereo not drawn) [Example 470, 2-((1-(4-methoxy-2,6-dimethylphenylsulfonyl)pyrrolidin-2-yl)methoxy)-N-(4-(2-(1-methyl-1H-benzo[d]imidazol-2-yl)ethyl)phenyl)acetamide], the inhibition at 10 µM on human B1R receptor is 92.7%; on B1R receptor of the rat, 98.1%.
In the same order, the values of `COc1cc(C)c(S(=O)(=O)N2CCCC2COCC(=O)NCc2ccc(N3CCCCC3)cc2)c(C)c1` (stereo not drawn) [Example 60, 2-[1-(4-methoxy-2,6-dimethyl-phenylsulfonyl)-pyrrolidin-2-ylmethoxy]-N-(4-piperidin-1-yl-benzyl)-acetamide] are 59.9% and 109%.
The matching figures for `COc1cc(C)c(S(=O)(=O)N2CCCCC2COCC(=O)N2CCN(c3cccc(C(F)(F)F)c3)CC2)c(C)c1` (stereo not drawn) [Example 509, 2-((1-(4-methoxy-2,6-dimethylphenylsulfonyl)piperidin-2-yl)methoxy)-1-(4-(3-(trifluoromethyl)phenyl)piperazin-1-yl)ethanone]: 92.7% and 102%.
The matching figures for `COc1cc(C)c(S(=O)(=O)N2CCC[C@H]2COCC(=O)N2CCC(CCN3CCCC3)CC2)c(C)c1` [Example 190, (S)-2-((1-(4-methoxy-2,6-dimethylphenylsulfonyl)pyrrolidin-2-yl)methoxy)-1-(4-(2-(pyrrolidin-1-yl)ethyl)piperidin-1-yl)ethanone hydrochloride]: 102% and 102%.
`Cc1cc(C)c(S(=O)(=O)N2Cc3ccccc3CC2COCC(=O)NCc2ccc(CN3CCCC3)cc2)c(C)c1` (stereo not drawn) [Example 83, N-(4-pyrrolidin-1-ylmethyl-benzyl)-2-[2-(2,4,6-trimethyl-phenylsulfonyl)-1,2,3,4-tetrahydro-isoquinolin-3-ylmethoxy]-acetamide]: the inhibition at 10 µM at human B1R receptor was 43.9%; at B1R receptor of the rat, 30.8%.
In the same order, the values of `COc1ccc(N2CCN(C(=O)COCC3CCCN3S(=O)(=O)c3c(Cl)cc(Cl)cc3Cl)CC2)cc1` (stereo not drawn) [Example 328, 1-(4-(4-methoxyphenyl)piperazin-1-yl)-2-((1-(2,4,6-trichlorophenylsulfonyl)pyrrolidin-2-yl)methoxy)ethanone] are 104% and 102%.
Consider `COc1cc(C)c(S(=O)(=O)N2CCCCC2COCC(=O)N2CCN(Cc3ccc(Cl)cc3)CC2)c(C)c1` (stereo not drawn) [Example 384, 1-(4-(4-chlorobenzyl)piperazin-1-yl)-2-((1-(4-methoxy-2,6-dimethylphenylsulfonyl)piperidin-2-yl)methoxy)ethanone], for which the inhibition at 10 µM was 105% at human B1R receptor and 98.6% at B1R receptor of the rat.
The matching figures for `COc1cc(C)c(S(=O)(=O)N2CCCCC2COCC(=O)N2CCN(CCn3c(C)ccc3C)CC2)c(C)c1` (stereo not drawn) [Example 559, 1-(4-(2-(2,5-dimethyl-1H-pyrrol-1-yl)ethyl)piperazin-1-yl)-2-((1-(4-methoxy-2,6-dimethylphenylsulfonyl)piperidin-2-yl)methoxy)ethanone]: 99.9% and 100%.
In the same order, the values of `COc1cc(C)c(S(=O)(=O)N2CCCCC2COCC(=O)N2CCCN(C)CC2)c(C)c1` (stereo not drawn) [Example 375, 2-((1-(4-methoxy-2,6-dimethylphenylsulfonyl)piperidin-2-yl)methoxy)-1-(4-methyl-1,4-diazepan-1-yl)ethanone] are 98.7% and 99.8%.
For the compound `COc1cc(C)c(S(=O)(=O)N2CCCCC2COCC(=O)N2CCC(N3CCN(C)CC3)CC2)c(C)c1` (stereo not drawn) [Example 524, 2-((1-(4-methoxy-2,6-dimethylphenylsulfonyl)piperidin-2-yl)methoxy)-1-(4-(4-methylpiperazin-1-yl)piperidin-1-yl)ethanone], the “B1R Antagonism, human [10 μM] % Inhibition” value on human B1R receptor is given as 101.62%. For the same compound, the “B1R Antagonism, rat [10 μM] % Inhibition” value at B1R receptor of the rat is listed as 100.66%.
On to `COc1cc(C)c(S(=O)(=O)N2CCCCC2COCC(=O)Nc2ccc(N3CCOCC3)nc2)c(C)c1` (stereo not drawn) [Example 396, 2-((1-(4-methoxy-2,6-dimethylphenylsulfonyl)piperidin-2-yl)methoxy)-N-(6-morpholinopyridin-3-yl)acetamide], for which the values for the inhibition at 10 µM at human B1R receptor and on B1R receptor of the rat were 24.7% and 80.6%, respectively.
In the same order, the values of `COc1cc(C)c(S(=O)(=O)N2CCCCC2COCC(=O)N2CCN(c3cccc(Cl)c3)CC2)c(C)c1` (stereo not drawn) [Example 511, 1-(4-(3-chlorophenyl)piperazin-1-yl)-2-((1-(4-methoxy-2,6-dimethylphenylsulfonyl)piperidin-2-yl)methoxy)ethanone] are 87% and 103%.
The matching figures for `COc1cc(C)c(S(=O)(=O)N2CCCCC2COCC(=O)N2CCN(c3ccc(C(F)(F)F)cn3)CC2)c(C)c1` (stereo not drawn) [Example 514, 2-((1-(4-methoxy-2,6-dimethylphenylsulfonyl)piperidin-2-yl)methoxy)-1-(4-(5-(trifluoromethyl)pyridin-2-yl)piperazin-1-yl)ethanone]: 85.2% and 99%.
The matching figures for `CN1CCC(N2CCN(C(=O)COCC3CCCCN3S(=O)(=O)c3cc4ccccc4s3)CC2)CC1` (stereo not drawn) [Example 171, 2-((1-(benzo[b]thiophen-2-ylsulfonyl)piperidin-2-yl)methoxy)-1-(4-(1-methylpiperidin-4-yl)piperazin-1-yl)ethanone]: 102% and 82.8%.
Take `Cc1cccc(Cl)c1S(=O)(=O)N1CCC[C@H]1COCC(=O)N1CCN(CC2CCN(C)CC2)CC1` [Example 163, (S)-2-((1-(2-chloro-6-methylphenylsulfonyl)pyrrolidin-2-yl)methoxy)-1-(4-((1-methylpiperidin-4-yl)methyl)piperazin-1-yl)ethanone dihydrochloride]: the inhibition at 10 µM at human B1R receptor came out at 95%; at B1R receptor of the rat, 101%.
With `COc1cc(C)c(S(=O)(=O)N2CCCCC2COCC(=O)N2CCN(c3ccc(Cl)c(Cl)c3)CC2)c(C)c1` (stereo not drawn) [Example 378, 1-(4-(3,4-dichlorophenyl)piperazin-1-yl)-2-((1-(4-methoxy-2,6-dimethylphenylsulfonyl)piperidin-2-yl)methoxy)ethanone], the inhibition at 10 µM stood at 63.4% on human B1R receptor and 98.8% at B1R receptor of the rat.
The matching figures for `O=C(COCC1CCCCN1S(=O)(=O)c1c(Cl)cccc1Cl)NCC1CCCN(Cc2ccccc2)C1` (stereo not drawn) [Example 314, N-((1-benzylpiperidin-3-yl)methyl)-2-((1-(2,6-dichlorophenylsulfonyl)piperidin-2-yl)methoxy)acetamide]: 105% and 104%.
As to `CN1CCN(C(=O)COCC2CCCCN2S(=O)(=O)c2c(Cl)cccc2Cl)C(c2ccccc2)C1` (stereo not drawn) [Example 455, 2-((1-(2,6-dichlorophenylsulfonyl)piperidin-2-yl)methoxy)-1-(4-methyl-2-phenylpiperazin-1-yl)ethanone], the inhibition at 10 µM was 103% on human B1R receptor and 99.3% on B1R receptor of the rat.

These data come from patent US8435978B2, “Substituted sulfonamide compounds” (Gruenenthal GmbH, priority 2006, dated 2013).
